Measured values reported in US8039430B2 (University of Wollongong, priority 2005, dated 2011).
Where two headings read alike, the source gives them in different places.

Assays:
E.f820 = test: Antibacterial screening (MIC) of compounds of Example 2, E.f820; assay type: cell-based, Enterrococci faecium; conditions: for MIC: read-out: Antibacterial activity μg/mL, E.f820
Method: (§1) • All assays used the Staphylococcus aureus strain ATCC 6538P. • Assays described in Chapter 5 additionally used the vancomycin-resistant enterococci and vancomycin-sensitive enterococci strains Ef243, Ef449, Ef820 and Ef487. Culture Media • Mueller-Hinton Broth Medium (MHB): MHB (Oxoid CM405) was prepared with final concentrations of […] MgCl2 and 2 μg/mL CaCl2. Culture medium was pre-warmed for approximately 2-3 h at 37° C. before use. • Mueller-Hinton Agar Medium (MHA): MMB containing 1.5% Agar (Merck Agar 1.01614). Maintenance of Bacteria • From a thawed cryovial, the bacteria was streaked onto MHA and the plate incubated overnight at 37° C. • From this plate, 10 cryovials were prepared by looping several colonies into 0.5 mL of 20% glycerol solution. The cryovials were immediately stored at −140° C. Preparation of Seed Cultures • A cryovial was removed from −140° C. storage and thawed at room temperature. • An MHA plate was streaked with a loopful of bacterial suspension and incubated overnight at 37° C. to create a parent plate (P1). • A daughter plate (D1) was streaked from the parent plate and incubated overnight at 37° C. […] The second parent plate (P2) was used to generate two additional daughter plates using the procedure outlined above before being discarded. • Cryovials were used twice to prepare parent plates (P1 and P2) before being discarded. […] A vancomycin control set (triplicate) and a compound negative control set (triplicate) were also included on each plate (FIG. 1). • The inoculated culture medium was incubated at 37° C. for 30 min, with shaking at 130 rpm. • Using a multichannel pipette, the contents of the first row were mixed before 50 μL was transferred to the second row. The pipette tips were changed and the process repeated by 50 μL of the mixed broth solutions in the second row being transferred to the third row. This process was repeated until the last row contained either the diluted test compound or a control (vancomycin or compound-negative). […] Antibacterial Testing of Compounds of Example 2 Introduction
(§2) The specific testing procedures and protocols are outlined in the section “Antibacterial Screening Methodology for the Compounds of Example 2”.
(§3) Vancomycin was used as the standard/control.

E.f449 = test: Antibacterial screening (MIC) of compounds of Example 2, E.f449; assay type: cell-based, Enterococcus faecium; conditions: for MIC: Enterococcus faecium, read-out: Antibacterial activity μg/mL, E.f449
Method: as §1, §2, §3

[1] = test system: Staphylococcus aureus strain ATCC 6538P; test: Antibacterial screening (MIC) of compounds of Example 2, S. aureus, Mueller-Hinton broth; assay type: cell-based; conditions: for MIC: Staphylococcus aureus, ATCC6538P, read-out: Antibacterial activity μg/mL, S.a
Method: Antibacterial Screening Methodology for Compounds of Example 2
as §1, §2
The antibacterial activity results are measured by minimum inhibitory concentration (MIC), which is the lowest concentration of compound necessary to prevent bacterial growth.

E.f243 = test: Antibacterial screening (MIC) of compounds of Example 2, E.f243; assay type: cell-based, Enterococcus faecium; conditions: for MIC: Enterococcus faecium, read-out: Antibacterial activity μg/mL, E.f243
Method: as §1, §2, §3

E.f987 = test: Antibacterial screening (MIC) of compounds of Example 2, E.f987; assay type: cell-based, Enterococcus faecium; conditions: for MIC: Enterococcus faecium, read-out: Antibacterial activity μg/mL, E.f987
[2] = Example 2 compounds, fully vancomycin-resistant strain E.f820
[3] = Example 2 compounds, enterococci strain E.f449
[4] = Example 2 compounds (linear cationic peptides), S. aureus, vancomycin-susceptible strain
[5] = Example 2 compounds, enterococci strain E.f243
[6] = Example 2 compounds, enterococci strain E.f987

| SMILES | MIC (E.f820; [2]) [µg/mL] | MIC (E.f449; [3]) [µg/mL] | MIC [1, 4] [µg/mL] | MIC (E.f243; [5]) [µg/mL] | MIC (E.f987; [6]) [µg/mL] | other results |
| --- | --- | --- | --- | --- | --- | --- |
| C=CC[C@H](NC(=O)[C@@H](CCCNC(=N)N)NC(=O)[C@@H](CCCCN)NC(=O)[C@H](Cc1ccc(-c2cc3ccccc3c3ccccc23)cc1)NC(C)=O)C(=O)OCc1ccccc1.Cl.Cl [Compound 140, Benzyl(2S,5R,8R,11S)-2-allyl-8-(4-aminobutyl)-3,6,9,12-tetraaza-5-(3-guanidinopropyl)-4,7,10,13-tetraoxo-11-(4-[9-phenanthrenyl]benzyl)tetradecanoate] | – | – | – | – | – | MIC (E.f820): > 125 µg/mL; MIC (E.f449): > 125 µg/mL; MIC [1]: 7.8 µg/mL; MIC (E.f243): > 125 µg/mL; MIC (E.f987): > 125 µg/mL |
| C=CC[C@H](NC(=O)[C@@H](CCCNC(=N)N)NC(=O)[C@H](NCCCC)NC(=O)COc1ccc2ccccc2c1-c1c(OCc2ccccc2)ccc2ccccc12)C(=O)OCc1ccccc1.Cl.Cl [Compound 134, Benzyl(2S,5R,8R)-2-allyl-3,6,9-triaza-11-(2-[2′-benzyloxy-{1,1′}-(S)-binaphthalen-2-yloxy])-8-(butylamino)-5-(3-guanidinopropyl)-4,7,10-trioxoundecanoate dihydrochloride] | – | – | – | – | – | Antibacterial activity μg/mL, E.f820 (E.f820; [2]): 62.5 µg/mL; Antibacterial activity μg/mL, E.f449 (E.f449; [3]): 62.5 µg/mL; Antibacterial activity μg/mL, S.a [1, 4]: 3.9 µg/mL; Antibacterial activity μg/mL, E.f243 (E.f243; [5]): 62.5 µg/mL; Antibacterial activity μg/mL, E.f987 (E.f987; [6]): 125 µg/mL |
| C=CC[C@H](NC(=O)[C@@H](CCCNC(=N)N)NC(=O)[C@@H](CCCCN)NC(=O)COc1ccc2ccccc2c1-c1c(OC)ccc2ccccc12)C(=O)OCc1ccccc1.Cl.Cl (atropisomer, axis not shown) [Compound 135] | 62.5 | 62.5 | 7.8 | 125 | 125 | – |
| C=CCOC(=O)c1cccc(NC(=O)[C@@H](CCCNC(=N)N)NC(=O)COc2ccc3ccccc3c2-c2c(OCC=C)ccc3ccccc23)c1.Cl (atropisomer, axis not shown) [Compound 160, Allyl(3R)-3-(6-(2-[2′-allyloxy-{1,1′}-(S)-binaphthalen-2-yloxy])-1,4-diaza-3-(3-guanidinopropyl)-2,5-dioxohexyl)benzoate hydrochloride] | 62.5 | 62.5 | 7.8 | 62.5 | 125 | – |
| C=CC[C@H](NC(=O)[C@H](CCCCN)NC(=O)[C@H](Cc1ccc(-c2cc3ccccc3c3ccccc23)cc1)NC(C)=O)C(=O)OC.Cl [Compound 119] | > 125 | > 125 | 15.6 | > 125 | > 125 | – |
| C=CCOc1ccc2ccccc2c1-c1c(OCC(=O)N[C@H](CCCNC(=N)N)C(=O)Nc2cccc(C(=O)OCc3ccccc3)c2)ccc2ccccc12.Cl (atropisomer, axis not shown) [Compound 158, Benzyl(3R)-3-(6-(2-[2′-allyloxy-{1,1′}-(S)-binaphthalen-2-yloxy])-1,4-diaza-3-(3-guanidylpropyl)-2,5-dioxohexyl)benzoate hydrochloride] | 31.3 | 62.5 | 7.8 | 62.5 | 62.5 | – |
| C=CCOc1ccc2ccccc2c1-c1c(OCC(=O)N[C@H](CCCNC(=N)N)C(=O)Nc2cccc(C(=O)OC)c2)ccc2ccccc12.Cl (atropisomer, axis not shown) [Compound 156, Methyl(3R)-3-(6-(2-[2′-allyloxy-{1,1′}-(S)-binaphthalen-2-yloxy])-1,4-diaza-3-(3-guanidylpropyl)-2,5-dioxohexyl)benzoate hydrochloride] | 62.5 | 125 | 3.9 | 125 | 62.5 | – |
| C=CC[C@H](NC(=O)[C@H](CCCCN)NC(=O)[C@H](Cc1ccc(-c2c3ccccc3cc3ccccc23)cc1)NC(C)=O)C(=O)OC.Cl [Compound 118, Methyl(2S,5S,8S)-2-allyl-5-(4-aminobutyl)-8-(4-[9-anthrecenyl]benzyl)-3,6,9-triaza-5-butylamino-4,7,10-trioxoundecanoate hydrochloride] | > 125 | > 125 | 31.3 | > 125 | > 125 | – |
| C=CCOC(=O)c1cccc(NC(=O)[C@@H](CCCN)NC(=O)COc2ccc3ccccc3c2-c2c(OCC=C)ccc3ccccc23)c1.Cl [Compound 159, Allyl(3R)-3-(6-(2-[2′-allyloxy-{1,1′}-(S)-binaphthalen-2-yloxy])-3-(3-aminopropyl)-1,4-diaza-2,5-dioxohexyl)benzoate hydrochloride] | – | – | – | – | – | Antibacterial activity μg/mL, E.f820 (E.f820; [2]): 62.5 µg/mL; Antibacterial activity μg/mL, E.f449 (E.f449; [3]): 125 µg/mL; Antibacterial activity μg/mL, S.a [1, 4]: 62.5 µg/mL; Antibacterial activity μg/mL, E.f243 (E.f243; [5]): 125 µg/mL; Antibacterial activity μg/mL, E.f987 (E.f987; [6]): >125 µg/mL |
| CCCOc1ccc2ccccc2c1-c1c(OCC(=O)N[C@H](CCCNC(=N)N)C(=O)Nc2cccc(C(=O)NO)c2)ccc2ccccc12.Cl (atropisomer, axis not shown) [Compound 164] | > 125 | > 125 | 7.8 | > 125 | > 125 | – |
| C=CCOc1ccc2ccccc2c1-c1c(OCC(=O)N[C@H](CCCN)C(=O)Nc2cccc(C(=O)OC)c2)ccc2ccccc12.Cl [Compound 155, Methyl(3R)-3-(6-(2-[2′-allyloxy-{1,1′}-(S)-binaphthalen-2-yloxy])-3-(3-aminopropyl)-1,4-diaza-2,5-dioxohexyl)benzoate hydrochloride] | – | – | – | – | – | Antibacterial activity μg/mL, E.f820 (E.f820; [2]): 125 µg/mL; Antibacterial activity μg/mL, E.f449 (E.f449; [3]): 125 µg/mL; Antibacterial activity μg/mL, S.a [1, 4]: 7.8 µg/mL; Antibacterial activity μg/mL, E.f243 (E.f243; [5]): >125 µg/mL; Antibacterial activity μg/mL, E.f987 (E.f987; [6]): >125 µg/mL |
| C=CCOc1ccc2ccccc2c1-c1c(OCC(=O)N[C@H](CCCNC(=N)N)C(=O)Nc2cccc(C(=O)NOCc3ccccc3)c2)ccc2ccccc12.Cl (atropisomer, axis not shown) [Compound 162] | > 125 | > 125 | 3.9 | > 125 | > 125 | – |
| C=CCOc1ccc2ccccc2c1-c1c(OCC(=O)N[C@H](CCCCN)C(=O)N[C@H](CCCNC(=N)N)C(=O)N[C@@H](CC=C)C(=O)OCc2ccccc2)ccc2ccccc12.Cl.Cl (atropisomer, axis not shown) [Compound 132] | 31.3 | 31.3 | 3.9 | 31.3 | 62.5 | – |
| C=CCOc1ccc2ccccc2c1-c1c(OCC(=O)N[C@H](CCCN)C(=O)Nc2cccc(C(=O)OCc3ccccc3)c2)ccc2ccccc12.Cl [Compound 157, Benzyl(3R)-3-(6-(2-[2′-allyloxy-{1,1′}-(S)-binaphthalen-2-yloxy])-3-(3-aminopropyl)-1,4-diaza-2,5-dioxohexyl)benzoate hydrochloride] | – | – | – | – | – | Antibacterial activity μg/mL, E.f820 (E.f820; [2]): 125 µg/mL; Antibacterial activity μg/mL, E.f449 (E.f449; [3]): 125 µg/mL; Antibacterial activity μg/mL, S.a [1, 4]: 15.6 µg/mL; Antibacterial activity μg/mL, E.f243 (E.f243; [5]): >125 µg/mL; Antibacterial activity μg/mL, E.f987 (E.f987; [6]): >125 µg/mL |
| C=CC[C@H](NC(=O)[C@@H](CCCNC(=N)N)NC(=O)[C@@H](CCCCN)NC(=O)[C@H](Cc1ccc(-c2c3ccccc3cc3ccccc23)cc1)NC(C)=O)C(=O)OCc1ccccc1.Cl.Cl [Compound 139, Benzyl(2S,5R,8R,11S)-2-allyl-8-(4-aminobutyl)-11-(4-[9-anthracenyl]benzyl)-3,6,9,12-tetraaza-5-(3-guanidinopropyl)-4,7,10,13-tetraoxotetradecanoate] | > 125 | > 125 | 15.6 | > 125 | > 125 | – |
